Laboratory results taken from US11066414B2, “Cot modulators and methods of use thereof” (Gilead Sciences, Inc., priority 2015, dated 2021).

What follows are compounds tested on TNFα (assay: Cot Monocyte TNFα Cell Based Assay). Conditions: Homo sapiens, Monocyte, read-out: EC50 TNF, LPS-stimulated human monocytes, TNFα.
For `Cc1scnc1[C@H](Nc1cc(Cl)c2ncc(C#N)c(Nc3ccc(F)c(Cl)c3)c2c1)c1cn(C2CCN(C(C)(C)C)CC2)nn1` [Example 137, (S)-6-(((1-(1-(tert-butyl)piperidin-4-yl)-1H-1,2,3-triazol-4-yl)(5-methylthiazol-4-yl)methyl)amino)-8-chloro-4-((3-chloro-4-fluorophenyl)amino)quinoline-3-carbonitrile], the EC50 was 235 nM. With `CC(C)(C)CNc1c(C#N)cnc2c(C#N)cc(N[C@H](c3cn(C4CC4)nn3)c3cccc4c3CNC4=O)cc12` [Example 76, (S)-6-(((1-cyclopropyl-1H-1,2,3-triazol-4-yl)(1-oxoisoindolin-4-yl)methyl)amino)-4-(neopentylamino)quinoline-3,8-dicarbonitrile] the EC50 was 981 nM. `CC(C)(C)N1CCC(n2cc([C@@H](Nc3cc(Cl)c4ncc(C#N)c(Nc5ccc(F)c(Cl)c5)c4c3)c3cccc4ncsc34)nn2)CC1` [Example 52, (S)-6-((benzo[d]thiazol-7-yl(1-(1-(tert-butyl)piperidin-4-yl)-1H-1,2,3-triazol-4-yl)methyl)amino)-8-chloro-4-((3-chloro-4-fluorophenyl)amino)quinoline-3-carbonitrile] gave an EC50 of 88 nM. `Cn1ccc2c([C@H](Nc3cc(Cl)c4ncc(C#N)c(NCC(C)(C)C)c4c3)c3cn(C4(C(F)(F)F)CC4)nn3)ccnc21` [Example 658, (S)-8-chloro-6-(((1-methyl-1H-pyrrolo[2,3-b]pyridin-4-yl)(1-(1-(trifluoromethyl)-cyclopropyl)-1H-1,2,3-triazol-4-yl)methyl)amino)-4-(neopentylamino)quinoline-3-carbonitrile] was tested, and the EC50 was 374 nM. With `Cn1ccc([C@H](Nc2cc(Cl)c3ncc(C#N)c(Nc4ccc(F)c(Cl)c4)c3c2)c2cn(C3CCN(C(C)(C)C)CC3)nn2)n1` [Example 268, (R)-6-(((1-(1-(tert-butyl)piperidin-4-yl)-1H-1,2,3-triazol-4-yl)(1-methyl-1H-pyrazol-3-yl)methyl)amino)-8-chloro-4-((3-chloro-4-fluorophenyl)-amino)quinoline-3-carbonitrile] the EC50 was 234 nM. For `Cc1nc(F)ccc1[C@H](Nc1cc(C#N)c2ncc(C#N)c(NC3CCCCC3)c2c1)c1cn(C2(C(F)(F)F)CC2)nn1` [Example 585, (S)-4-(cyclohexylamino)-6-(((6-fluoro-2-methylpyridin-3-yl)(1-(1-(trifluoromethyl)-cyclopropyl)-1H-1,2,3-triazol-4-yl)methyl)amino)quinoline-3,8-dicarbonitrile], the EC50 was 838 nM. Work on `CC(C)(C)CNc1c(C#N)cnc2c(Cl)cc(N[C@H](c3cn(C4(C(F)(F)F)CC4)nn3)c3ccc(Cl)c4cnccc34)cc12` [Example 651, (S)-8-chloro-6-(((8-chloroisoquinolin-5-yl)(1-(1-(trifluoromethyl)cyclopropyl)-1H-1,2,3-triazol-4-yl)methyl)amino)-4-(neopentylamino)quinoline-3-carbonitrile] yielded an EC50 of 135 nM. `Cc1nc(F)ccc1[C@H](Nc1cc(Cl)c2ncc(C#N)c(N[C@H](CCC#N)c3ccccc3)c2c1)c1cn(C2CC2)nn1` [Example 431, 8-chloro-4-(((R)-3-cyano-1-phenyl-propyl)amino)-6-(((S)-(1-cyclopropyl-1H-1,2,3-triazol-4-yl)(6-fluoro-2-methylpyridin-3-yl)methyl)amino)-quinoline-3-carbonitrile] was tested, and the EC50 was 21 nM. For `CC(C)(C)CNc1c(C#N)cnc2c(Cl)cc(N[C@@H](c3ccc4cccnc4c3)c3cn(C4(C(F)F)CC4)nn3)cc12` [Example 699, (S)-8-chloro-6-(((1-(1-(difluoromethyl)cyclopropyl)-1H-1,2,3-triazol-4-yl)(quinolin-7-yl)methyl)amino)-4-(neopentylamino)quinoline-3-carbonitrile], the EC50 was 386 nM. `Cc1nc(F)ccc1[C@H](Nc1cc(Cl)c2ncc(C#N)c(NCC(C)(C)C)c2c1)c1cn(C2(C(C)(C)C)CC2)nn1` [Example 761, (S)-6-(((1-(1-(tert-butyl)cyclopropyl)-1H-1,2,3-triazol-4-yl)(6-fluoro-2-methylpyridin-3-yl)methyl)amino)-8-chloro-4-(neopentylamino)quinoline-3-carbonitrile] gave an EC50 of 69 nM. `CC(C)(C)N1CCC(n2cc([C@@H](Nc3cc(Cl)c4ncc(C#N)c(Nc5ccc(F)c(Cl)c5)c4c3)c3cocn3)nn2)CC1` [Example 348, (S)-6-(((1-(1-(tert-butyl)piperidin-4-yl)-1H-1,2,3-triazol-4-yl)(oxazol-4-yl)methyl)amino)-8-chloro-4-((3-chloro-4-fluorophenyl)amino)-quinoline-3-carbonitrile] gave an EC50 of 444 nM. In the case of `N#Cc1cnc2c(Cl)cc(N[C@@H](c3cccnc3)c3cn(C4CCN(C5COC5)CC4)nn3)cc2c1Nc1ccc(F)c(Cl)c1` [Example 314, (S)-8-chloro-4-((3-chloro-4-fluorophenyl)amino)-6-(((1-(1-(oxetan-3-yl)piperidin-4-yl)-1H-1,2,3-triazol-4-yl)(pyridin-3-yl)methyl)amino)quinoline-3-carbonitrile], the EC50 is reported as 302 nM. In the case of `[2H][C@](Nc1cc(Cl)c2ncc(C#N)c(NCC(C)(C)C)c2c1)(c1ccc(F)nc1)c1c[nH]nn1` [Example 135, (S)-8-chloro-6-(((6-fluoropyridin-3-yl)(1H-1,2,3-triazol-4-yl)methyl-d)amino)-4-(neopentylamino)quinoline-3-carbonitrile], the EC50 is reported as 660 nM. In the case of `Cc1nc(F)ccc1[C@H](Nc1cc(Cl)c2ncc(C#N)c(NCC(C)(C)C)c2c1)c1cn(C2(CC(F)(F)F)CC2)nn1` [Example 753, (S)-8-chloro-6-(((6-fluoro-2-methylpyridin-3-yl)(1-(1-(2,2,2-trifluoroethyl)-cyclopropyl)-1H-1,2,3-triazol-4-yl)methyl)amino)-4-(neopentylamino)quinoline-3-carbonitrile], the EC50 is reported as 59 nM. `N#Cc1cnc2c(Cl)cc(N[C@@H](C3=CCOCC3)c3c[nH]nn3)cc2c1Nc1cnc(F)c(F)c1` [Example 156, (S)-8-chloro-4-((5,6-difluoropyridin-3-yl)amino)-6-(((3,6-dihydro-2H-pyran-4-yl)(1H-1,2,3-triazol-4-yl)methyl)amino)quinoline-3-carbonitrile] showed an EC50 of 1190 nM. `Cc1ccc([C@H](Nc2cc(Cl)c3ncc(C#N)c(NCC(C)(C)C)c3c2)c2cn(C3(C(F)(F)F)CC3)nn2)c(C)n1` [Example 687, (S)-8-chloro-6-(((2,6-dimethylpyridin-3-yl)(1-(1-(trifluoromethyl)cyclopropyl)-1H-1,2,3-triazol-4-yl)methyl)amino)-4-(neopentylamino)quinoline-3-carbonitrile] was tested, and the EC50 was 178 nM. Compound `N#Cc1cnc2c(Cl)cc(N[C@@H](c3cccnc3)c3cn(C4CC4)nn3)cc2c1Nc1cnc(F)c(F)c1` [Example 206, (S)-8-chloro-6-(((1-cyclopropyl-1H-1,2,3-triazol-4-yl)(pyridin-3-yl)methyl)amino)-4-((5,6-difluoropyridin-3-yl)amino)quinoline-3-carbonitrile] has an EC50 of 211 nM. For `Cc1nc(C)c([C@H](Nc2cc(Cl)c3ncc(C#N)c(Nc4ccc(F)c(Cl)c4)c3c2)c2cn(C3CCN(C(C)(C)C)CC3)nn2)s1` [Example 261, (R)-6-(((1-(1-(tert-butyl)piperidin-4-yl)-1H-1,2,3-triazol-4-yl)(2,4-dimethyl-thiazol-5-yl)methyl)amino)-8-chloro-4-((3-chloro-4-fluorophenyl)amino)-quinoline-3-carbonitrile], the EC50 was 344 nM. `CC(C)(C)CNc1c(C#N)cnc2c(Br)cc(N[C@H](c3cn(C4(C(F)(F)F)CC4)nn3)c3cccc4ncsc34)cc12` [Example 439, (S)-6-((benzo[d]thiazol-7-yl(1-(1-(trifluoromethyl)cyclopropyl)-1H-1,2,3-triazol-4-yl)methyl)amino)-8-bromo-4-(neopentylamino)quinoline-3-carbonitrile] was tested, and the EC50 was 299 nM. With `CC(C)(C)n1cc([C@@H](Nc2cc(Cl)c3ncc(C#N)c(Nc4ccc(F)c(Cl)c4)c3c2)c2cscn2)nn1` [Example 361, (S)-6-(((1-(tert-butyl)-1H-1,2,3-triazol-4-yl)(thiazol-4-yl)methyl)-amino)-8-chloro-4-((3-chloro-4-fluorophenyl)amino)quinoline-3-carbonitrile] the EC50 was 746 nM. For `N#Cc1cnc2c(Cl)cc(N[C@H](c3cn(C4CC4)nn3)c3cnccc3Cl)cc2c1Nc1cnc(F)c(F)c1` [Example 133, (S)-8-chloro-6-(((4-chloropyridin-3-yl)(1-cyclopropyl-1H-1,2,3-triazol-4-yl)methyl)amino)-4-((5,6-difluoropyridin-3-yl)amino)quinoline-3-carbonitrile], the EC50 was 978 nM. For `Cc1ncoc1[C@H](Nc1cc(C#N)c2ncc(C#N)c(NCC(C)(C)C)c2c1)c1cn(C2(C(F)F)CC2)nn1` [Example 657, (R)-6-(((1-(1-(difluoromethyl)-cyclopropyl)-1H-1,2,3-triazol-4-yl)(4-methyloxazol-5-yl)methyl)amino)-4-(neopentylamino)quinoline-3,8-dicarbonitrile], the EC50 was 806 nM. `[2H]C([2H])(Nc1c(C#N)cnc2c(Cl)cc(N[C@@]([2H])(c3ccc(N(C)C)nc3)c3cn(C4CC4)nn3)cc12)C(C)(C)C` [Example 679, (S)-8-chloro-6-(((1-cyclopropyl-1H-1,2,3-triazol-4-yl)(6-(dimethylamino)pyridin-3-yl)methyl-d)amino)-4-((2,2-dimethylpropyl-1,1-d2)amino)quinoline-3-carbonitrile] was tested, and the EC50 was 710 nM. For `Cn1ccc2c([C@H](Nc3cc(Cl)c4ncc(C#N)c(NCC(C)(C)C)c4c3)c3cn(C(CF)CF)nn3)cccc2c1=O` [Example 777, (S)-8-chloro-6-(((1-(1,3-difluoropropan-2-yl)-1H-1,2,3-triazol-4-yl)(2-methyl-1-oxo-1,2-dihydroisoquinolin-5-yl)methyl)amino)-4-(neopentylamino)quinoline-3-carbonitrile], the EC50 was 46 nM.

Same assay, conditions: second value of the cell IC50/EC50; LPS-stimulated human monocytes, TNFα by TR-FRET
With `Cn1cc(CNc2cc(Cl)c3ncc(C#N)c(Nc4ccc(F)c(Cl)c4)c3c2)nn1` [Comparative Example 3, reference compound] the “IC50/EC50 [nM]: EC50 (TNFα)” value was > 10000 nM.
